Measurements from PubChem BioAssay AID2060908 (Molecular Pharmacology Branch, DTP, NCI, 2025).
“And” between values parts separate entries of the source, which are not always exact repeats. Equal entries are not always repeated.

Tested on: 186277-243-T-J2-PDC complex spheroids, viability
Experiment: Anticancer human tumor 186277-243-T-J2-PDC patient-derived colon adenocarcinoma cell line growth inhibition [RAS]
Settings: for viability, T/C: stronger effect = lower value
How it was run: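 Agents were tested in combination matrices in half-log decrements from a top concentration at or near clinical Cmax (10 microM if undetermined). Targets were multi-cell spheroids of tumour lines plus HUVEC and MSC stromal cells.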
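Further: spheroids exposed to compounds for 7 days before viability read.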

CC(Nc1ccc2c(c1)OCCn1cc(N3C(=O)OCC3C(F)F)nc1-2)C(N)=O (configuration not stated) + C#Cc1c(F)ccc2cc(O)cc(-c3ncc4c(N5CC6CCC(C5)N6)nc(OCC56CCCN5CC(F)C6)nc4c3F)c12 was tested. Which IC50 (curve of first compound, second compound 0.0316 µM) did it give?
The IC50 was under 31.6 nM.

What about the IC50 (curve of first compound, second compound 0.1 µM) of the same compound?
The IC50 was under 31.6 nM.

And the IC50 (curve of first compound, second compound 0.316 µM)?
Its IC50 is under 31.6 nM.

What about the IC50 (curve of first compound, second compound 1 µM) of the same compound?
The IC50 was under 31.6 nM.

And the IC50 (curve of first compound, second compound 3.16 µM)?
Its IC50 is under 31.6 nM.

And the IC50 (curve of first compound, second compound 10 µM)?
Its IC50 is under 31.6 nM.

And the viability, T/C (second compound 0.0316 µM, first compound 0.0316 µM)?
The viability, T/C was 45.9%.

And the viability, T/C (second compound 0.0316 µM, first compound 0.1 µM)?
The viability, T/C was 39.7%.

And the viability, T/C (second compound 0.0316 µM, first compound 0.316 µM)?
The viability, T/C was 16.1%.

And the viability, T/C (second compound 0.0316 µM, first compound 1 µM)?
The viability, T/C was 7.04%.

What about the viability, T/C (second compound 0.0316 µM, first compound 3.16 µM) of the same compound?
Its viability, T/C is 3.9%.

What about the viability, T/C (second compound 0.0316 µM, first compound 10 µM) of the same compound?
Its viability, T/C is 3.75%.

And the viability, T/C (second compound 0.1 µM, first compound 0.0316 µM)?
The viability, T/C was 25.7%.

What about the viability, T/C (second compound 0.1 µM, first compound 0.1 µM) of the same compound?
Its viability, T/C is 16%.

And the viability, T/C (second compound 0.1 µM, first compound 0.316 µM)?
The viability, T/C was 4.89%.

What about the viability, T/C (second compound 0.1 µM, first compound 1 µM) of the same compound?
The viability, T/C was 2.76%.

What about the viability, T/C (second compound 0.1 µM, first compound 3.16 µM) of the same compound?
The viability, T/C was 1.89%.

And the viability, T/C (second compound 0.1 µM, first compound 10 µM)?
The viability, T/C was 2.88%.

What about the viability, T/C (second compound 0.316 µM, first compound 0.0316 µM) of the same compound?
Its viability, T/C is 18.2%.

What about the viability, T/C (second compound 0.316 µM, first compound 0.1 µM) of the same compound?
The viability, T/C was 7.51%.

What about the viability, T/C (second compound 0.316 µM, first compound 0.316 µM) of the same compound?
The viability, T/C was 2.9%.

And the viability, T/C (second compound 0.316 µM, first compound 1 µM)?
The viability, T/C was 2.32%.

What about the viability, T/C (second compound 0.316 µM, first compound 3.16 µM) of the same compound?
Its viability, T/C is 1.28%.

What about the viability, T/C (second compound 0.316 µM, first compound 10 µM) of the same compound?
The viability, T/C was 1.02%.

And the viability, T/C (second compound 1 µM, first compound 0.0316 µM)?
Its viability, T/C is 9.56%.

And the viability, T/C (second compound 1 µM, first compound 0.1 µM)?
Its viability, T/C is 5.56%.

What about the viability, T/C (second compound 1 µM, first compound 0.316 µM) of the same compound?
Its viability, T/C is 2.6%.

What about the viability, T/C (second compound 1 µM, first compound 1 µM) of the same compound?
Its viability, T/C is 1.95%.

And the viability, T/C (second compound 1 µM, first compound 3.16 µM)?
Its viability, T/C is 1.11%.

What about the viability, T/C (second compound 1 µM, first compound 10 µM) of the same compound?
The viability, T/C was 1.01%.

And the viability, T/C (second compound 3.16 µM, first compound 0.0316 µM)?
Its viability, T/C is 8.36%.

And the viability, T/C (second compound 3.16 µM, first compound 0.1 µM)?
Its viability, T/C is 4.7%.

And the viability, T/C (second compound 3.16 µM, first compound 0.316 µM)?
The viability, T/C was 2.45%.

And the viability, T/C (second compound 3.16 µM, first compound 1 µM)?
The viability, T/C was 1.84%.

What about the viability, T/C (second compound 3.16 µM, first compound 3.16 µM) of the same compound?
The viability, T/C was 3.64%.

What about the viability, T/C (second compound 3.16 µM, first compound 10 µM) of the same compound?
The viability, T/C was 0.74%.

What about the viability, T/C (second compound 10 µM, first compound 0.0316 µM) of the same compound?
The viability, T/C was 6.16%.

What about the viability, T/C (second compound 10 µM, first compound 0.1 µM) of the same compound?
Its viability, T/C is 2.81%.

What about the viability, T/C (second compound 10 µM, first compound 0.316 µM) of the same compound?
Its viability, T/C is 1.2%.

And the viability, T/C (second compound 10 µM, first compound 1 µM)?
Its viability, T/C is 0.66%.

What about the viability, T/C (second compound 10 µM, first compound 3.16 µM) of the same compound?
The viability, T/C was 0.3%.

What about the viability, T/C (second compound 10 µM, first compound 10 µM) of the same compound?
The viability, T/C was 0.16%.

Which viability, T/C (compound 0.00316 µM) does the source give for C=CC(=O)Nc1cc(Nc2nccc(-c3cn(C)c4ccccc34)n2)c(OC)cc1N(C)CCN(C)C here?
The viability, T/C was 91.2% [middle of 4 runs].

And the viability, T/C (compound 0.0316 µM)?
Its viability, T/C is 93.3% [middle of 4 runs].

What about the viability, T/C (compound 0.1 µM) of the same compound?
The viability, T/C was 99.4% [middle of 4 runs].

And the viability, T/C (compound 0.316 µM)?
The viability, T/C was 94.8% [middle of 4 runs].

What about the IC50 (curve of compound) of the same compound?
The IC50 was over 1000 nM.

For C[C@@H](NC(=O)c1ncnc(N)c1Cl)c1ncc(C(=O)Nc2cc(C(F)(F)F)c(Cl)cn2)s1, which viability, T/C (compound 0.0316 µM) is on record?
Its viability, T/C is 99.8% [middle of 4 runs].

And the viability, T/C (compound 0.1 µM)?
The viability, T/C was 93.7% [middle of 4 runs].

What about the viability, T/C (compound 0.316 µM) of the same compound?
Its viability, T/C is 102% [middle of 4 runs].

And the viability, T/C (compound 1 µM)?
Its viability, T/C is 91.9% [middle of 4 runs].

And the viability, T/C (compound 3.16 µM)?
Its viability, T/C is 104% [middle of 4 runs].

What about the viability, T/C (compound 10 µM) of the same compound?
Its viability, T/C is 79.8% [middle of 4 runs].

And the IC50 (curve of compound)?
The IC50 was over 10000 nM.

With CCN1CCN(Cc2ccc(Nc3ncc(F)c(-c4cc(F)c5nc(C)n(C(C)C)c5c4)n3)nc2)CC1 as the compound, how does the viability, T/C (compound 0.01 µM) read?
The viability, T/C was 102% (3×) and 98.7%.

And the viability, T/C (compound 0.1 µM)?
Its viability, T/C is 127% [middle of 4 runs].

What about the IC50 (curve of compound) of the same compound?
The IC50 was over 1000 nM.
